{"source": "patent US20100015126A1", "about": "“Methods of Binding of Cross-Beta Structures By Chaperones” (priority 2006, published 2010)", "key": {"[1]": {"biological_target": "T1, human mitochondrial HSP60 (Homo sapiens, UniProt P10809)", "T1 construct": "Dr. W. van Eden, Utrecht University; host or cells: E. coli", "T1 sequence (P10809 27-573)": "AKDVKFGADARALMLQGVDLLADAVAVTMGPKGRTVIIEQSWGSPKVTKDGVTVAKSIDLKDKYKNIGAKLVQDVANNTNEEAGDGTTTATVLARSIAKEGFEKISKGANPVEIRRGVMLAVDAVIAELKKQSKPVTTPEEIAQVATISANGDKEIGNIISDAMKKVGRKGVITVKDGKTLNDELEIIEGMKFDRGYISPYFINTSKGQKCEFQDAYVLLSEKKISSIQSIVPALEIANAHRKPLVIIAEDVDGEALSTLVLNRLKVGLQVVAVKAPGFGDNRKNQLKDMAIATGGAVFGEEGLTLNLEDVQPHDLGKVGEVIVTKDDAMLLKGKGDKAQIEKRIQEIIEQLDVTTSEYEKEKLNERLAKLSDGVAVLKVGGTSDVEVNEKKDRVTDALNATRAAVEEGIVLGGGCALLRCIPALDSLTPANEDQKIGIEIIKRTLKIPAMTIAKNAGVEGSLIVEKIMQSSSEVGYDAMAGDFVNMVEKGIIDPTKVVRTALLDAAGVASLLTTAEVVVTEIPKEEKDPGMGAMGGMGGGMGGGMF", "assay": "Competition ELISA: HSP60 binding under influence of ThT or Congo red", "conditions": "concentration series of compound"}, "HUVECs": {"tested_on": "HUVECs", "assay": "Adhesion of HUVECs to immobilized misfolded proteins under influence of BiP (LDH read-out)", "assay_type": "cell-based, human", "conditions": "for Number of adhered HUVECs after preincubation of coated protein with BiP: BiP approximately 200 μg/ml", "protocol": "HUVECs are primary endothelial cells (ECs), isolated from umbilical cords using 0.1% collagenase (Sigma, C0130, 100 mg, dissolved in 100 ml M199 medium supplemented with 10% FCS (Gibco 10106-169) and Penicillin-Streptomycin (P/S, Gibco, 15140-122)), according to widespread used standard procedures known to a person skilled in the art. HUVECs have the typical features of ECs, e.g. cobblestone morphology and von Willebrand factor storage in Weibel-Palade bodies. HUVECs can regularly be cultured up to passage 5; beyond passage 5 HUVECs loose typical EC markers. The isolation is described here in brief. The umbilical cord is washed for less than 3 minutes in ethanol and subsequently with PBS. The vein is connected to canules and flushed with 10 ml PBS, followed by loading with the 0.1% collagenase solution. After a 15 minute-incubation at 37° C., the detached endothelial cell suspension is recovered by flushing the vein with 10 ml medium which is subsequently added to the collagenase solution. The EC suspension is centrifuged for 5 minutes at room temperature, at low g-force. Supernatant is discarded and the cell pellet is resuspended in 5 ml ‘rich medium’ (EGM-2; Endothelial basal medium (EBM-2, Cambrex, CC-3156) and Singlequots containing supplements for endothelial cells (Cambrex, CC-4176)). Cells (passage 0, P0) are seeded in a culture flask coated with 0.5% gelatin (Sigma, G1393). To facilitate the adhesion of the endothelial cells, human fibronectin is added to the cell culture at a final concentration of 2 μg/ml. EC's are cultured at 37° C., at 5% CO2. The cell culture medium is refreshed every 2-3 days up to when the cells grow to confluency. Then, with the addition of trypsin-EDTA, the cells are detached from the flask, centrifuged at low g-force, resuspended in rich medium and seeded in larger 0.5% gelatin-precoated cell culture flasks.\nIn 96-wells plates (Immulon high-binding plates, Thermo Labsystems 3355) proteins, i.e. BSA-AGE, control BSA, IgIV Gammagard, crossbeta dIgIV-86 at 5 μg/ml, 10 μg/ml misfolded oxLDL, or gelatin (Sigma G1393, 2% solution in H2O or PBS, positive control for adhesion to ECs) were coated using 100 μl solutions, in six wells for each condition. Following incubation for 2 hours at 37° C. the solutions were discarded and the wells blocked for 1 hour at 37° C. with 100 μl/well of 1% polyvinyl-pyrrolidone (PVP, Sigma P5288) in PBS, filter (0.22 μm) sterilized. […] Subsequently, the block solution was discarded. Next, the plates were incubated with 40 μl RPMI 1640 medium (Gibco, 52400) and 10 μl of the potential inhibitor, i.e. recombinant human BiP at approximately 200 μg/ml final concentration. HUVECs were obtained by trypsinization. […] The absorbance at 490 nm was measured on a Versamax microplate reader at various time points."}, "[2]": {"tested_on": "human monocyte-derived dendritic cells", "assay": "FACS: binding of misfolded proteins and BiP to human monocyte-derived dendritic cells", "assay_type": "cell-based", "from_the_text": "In vitro generation of peripheral blood human monocyte-derived dendritic cells, and analyses for binding of misfolded proteins and BiP\nHuman DCs are generated from non-proliferating precursors selected from peripheral blood mononuclear cells (PBMCs), essentially by published methods (Sallustro and Lanzavecchia [1994], J. Exp. Med. 179 1109-1118). Relative abundant presence of CD1a, CD32, CD36, CD40, CD54, CD86, HLA-DR and CD206 and relative low content of CD14 positive, CD16 positive, CD64 positive, CD80 positive, CD83 positive and CD163 positive cells serve as a quality measure for the immature DCs. After obtaining the immature DCs upon stimulation with GM-CSF and IL-4, direct binding of misfolded proteins and BiP to the DCs is assessed by incubating 200.000 cells (2*10^6 cells/ml) for 30 minutes at 4° C. under metabolic arrested state, with 1) PBS, 2) 58 μg/ml BiP (830 nM), 4) 250 μg/ml BSA-AGE (3.6 μM), 5) BSA-AGE+BiP, 6) 250 μg/ml oxLDL, 7) oxLDL+BiP, 8) mixture of BiP-binding peptides 6BB8-11, 13 (see Table 5), 125 μg/ml+BiP, and 8) 62.5 μg/ml Aβ16-22, 62.5 μg/ml Aβ25-35+BiP. After the incubation and careful washing of the cells, binding of BiP, BSA-AGE and oxLDL is assessed with FACS, using primary antibodies monoclonal anti-FLAG antibody, monoclonal anti-glycated human fibronectin antibody 4B5 and rabbit serum with anti-human apoliprotein B-100 antibody (Dade Behring, Newark, Del., USA), and the appropriate FITC- or PE-labeled secondary antibody. Mean fluorescence intensity (MFI) ratio's are determined by measuring background fluorescence."}}}
{"compound": "Nc1c(/N=N/c2ccc(-c3ccc(/N=N/c4cc(S(=O)(=O)O)c5ccccc5c4N)cc3)cc2)cc(S(=O)(=O)O)c2ccccc12", "note": "[Congo red]", "values": [{"measurement": "Binding of HSP60 to Aβ42 under influence of compound", "setting": "[1]; 10 or 30 μg/ml HSP60", "value": "inhibit"}, {"measurement": "Binding of HSP60 to BSA-AGE under influence of compound", "setting": "[1]; 10 or 30 μg/ml HSP60", "value": "inhibited"}]}
{"compound": "Cc1ccc2c(c1)sc(-c1ccc(N(C)C)cc1)[n+]2C.[Cl-]", "note": "[ThT, Thioflavin T]", "values": [{"measurement": "Binding of HSP60 to misfolded IgIV (dIgIV-86) under influence of compound", "setting": "[1]; 10 μg/ml HSP60", "value": "stimulates"}, {"measurement": "Binding of HSP60 to Aβ42 under influence of compound", "setting": "[1]; 10 or 30 μg/ml HSP60", "value": "inhibit"}]}
{"compound": "BSA-AGE", "values": [{"measurement": "Number of adhered HUVECs after preincubation of coated protein with BiP", "setting": "HUVECs", "value": "hardly increase"}, {"measurement": "Adhesion of HUVECs to coated protein", "setting": "HUVECs; without BiP, LDH activity after lysis", "value": "to a similar extent as to gelatin"}, {"measurement": "Binding to DCs (MFI ratio), Misfolded protein", "setting": "[2]; FACS, human dendritic cells, detection of the misfolded protein, signal divided by background signal", "value": 4.0}, {"measurement": "Binding of misfolded protein to DCs", "setting": "[2]; absence of BiP, 250 μg/ml", "value": "bind"}, {"measurement": "Amount of BiP bound to DCs when added together with misfolded protein", "setting": "[2]; compared to BiP added to DCs alone", "value": "about doubled"}, {"measurement": "Amount of misfolded protein bound to DCs when added together with BiP", "setting": "[2]; compared to misfolded protein without BiP", "value": "only slightly increased"}]}
{"compound": "native BSA: non-modified bovine serum albumin control", "values": [{"measurement": "Number of adhered HUVECs after preincubation of coated protein with BiP", "setting": "HUVECs", "value": "hardly increase"}]}
